Columns and labels:
Stability / shelf life = type: physicochemical; settings: protected from light and maintained at 4° C.
Solubility = type: physicochemical; settings: distilled water or aqueous buffer

CC[C@H](C)[C@H](NC(=O)[C@H](Cc1ccc(O)cc1)NC(=O)[C@@H]1CCCN1C(=O)[C@H](CCCNC(=N)N)NC(=O)[C@H](CCCNC(=N)N)NC(=O)[C@@H]1CCCN1C(=O)[C@H](CCCCN)NC(=O)[C@H](CC(N)=O)NC(=O)[C@H](CCC(=O)O)NC(=O)[C@H](Cc1ccc(O)cc1)NC(=O)[C@H](CC(C)C)NC(=O)[C@H](CCC(=O)O)NC(=S)Nc1ccc2c(c1)C(=O)OC21c2ccc(O)cc2Oc2cc(O)ccc21)C(=O)N[C@@H](CC(C)C)C(=O)O [N-FTC-[Glu^1]NT, N-fluoresceyl thiocarbamyl-[Glu^1] neurotensin]
stability (Stability / shelf life): stable
solubility (Solubility): freely soluble
toxicity (Toxicity (statement)): 100% non-toxic

From patent US5760188A, “Marker for neurotensin receptor” (Martin R&F Inc., priority 1996, dated 1998)
